Several values for one entry are separate records, joined by “and”; a condition that tells them apart may be missing. Equal values may be shown once.
Legend:
integrin αvβ3 = biological target: T1, integrin αvβ3 (Homo sapiens, UniProt P05106+P06756); assay: competitive cell binding assay using ^125I-echistatin on U87MG cells; conditions: Example 4; n=3; read-out: IC50 (inhibition of ^125I-echistatin binding to U87MG cells)
T1 construct: evaluated using U87MG cells (integrin αvβ3-positive); endogenous in cells; host or cells: U87MG human glioblastoma cells (ATCC)
Method: Experiments were performed on U87MG human glioblastoma cells with triplicate samples as previously reported.
In vitro integrin αvβ3-binding affinities and specificities of RGD4, PRGD4 and FPRGD4 were assessed via displacement cell binding assays using ^125I-echistatin as the integrin αvβ3-specific radioligand. Experiments were performed on U87MG human glioblastoma cells by the method previously described (J Nucl Med. 2005;46:1707-1718 J Nucl Med. 2006;47:1172-1180, which is incorporated herein by reference for the corresponding discussion). […] Experiments were performed with triplicate samples.
Experiments were performed with triplicate samples.
In vitro integrin-binding affinity and specificity of RGD multimers and DOTA-RGD multimers were assessed via competitive cell binding assays using ^125I-echistatin as the integrin αvβ3-specific radioligand (J Nucl Med. 2005;46:1707-1718, which is incorporated herein by reference for the corresponding discussion). […] Experiments were performed with triplicate samples.

[1] = tested on: MDA-MB-435 tumor-bearing mice; assay: biodistribution of ^3H-PTX and ^3H-RGD2−PTX in MDA-MB-435 tumor-bearing mice; assay type: in vivo, mouse
Method: All animal experiments were performed in compliance with the guidelines for the care and use of research animals established by the Stanford University's Animal Studies Committee. Female athymic nude mice (nu/nu) were obtained from Harlan (Indianapolis, Ind.) at 6-8 weeks of age and were kept under sterile conditions. The MDA-MB-435 cells were harvested and suspended in sterile PBS at a concentration of 5×10^7 cells/mL. Viable cells (5×10^6) in PBS (100 μL) were injected orthotopically in the right mammary fat pad. […] Tumor growth was followed by caliper measurements of perpendicular measures of the tumor. The tumor volume was estimated by the formula: tumor volume=a×(b^2)/2, where a and b are the tumor length and width respectively in mm.
The animals were euthanized at 4, 24 and 48 h post injection and major organs and tissues were collected correspondingly. Approximately 100 mg of the tissue was added to glass scintillation vials containing 1 mL of tissue solubilizer SoluEne®-350 (Perkin-Elmer, Waltham, Mass.). These samples were digested at 55° C. for overnight followed by bleaching to obtain the decolorized samples. Chemiluminescence was reduced by the addition of glacial acetic acid. Hionic-Fluor liquid scintillation cocktail (Perkin-Elmer) was added to all samples, which were then counted with a Tri-Carb 2800TR liquid scintillation Analyzer (Perkin-Elmer).

in vivo = conditions: mouse, iv, 3.7 MBq, total radioactivity, U87MG tumor uptake
Method: PET scans and image analysis were performed using a microPET R4 rodent model scanner (Siemens Medical Solutions) as previously reported (J Nucl Med 2006;47:113-121 and J Nucl Med 2005;46:1707-1718, each of which is incorporated herein by reference for the corresponding discussion). Each mouse was tail-vein injected with about 3.7 MBq (100 μCi) of ^18F-FPRGD2 under isoflurane anesthesia. The 30-min dynamic scan (1×30 s, 4×1 min, 1×1.5 min, 4×2 min, 1×2.5 min, 4×3 min, total of 15 frames) was started 1 min after injection. Five min static PET images were also acquired at 1 h and 2 h post-injection (p.i.). The images were reconstructed by a 2-dimensional ordered-subsets expectation maximum (OSEM) algorithm and no correction was applied for attenuation or scatter.
PET scans and image analysis were performed using a microPET R4 rodent model scanner (Siemens Medical Solutions) as previously reported. For U87MG tumor model, mice (n=3) were tail-vein injected with about 3.7 MBq (100 μCi) of ^18F-FPRGD4 under isoflurane anesthesia and then subjected to a 30-min dynamic scan (1×30 s, 4×1 min, 1×1.5 min, 4×2 min, 1×2.5 min, 4×3 min, total of 15 frames) starting from 1 min p.i. Five min static PET images were also acquired at 1, 2, and 3 h p.i. The images were reconstructed by 2-dimensional ordered-subsets expectation maximum (OSEM) algorithm. No attenuation or scatter correction was applied. […] The 5-min static PET scans was then acquired at 30 min and 1 h p.i. Multiple time point static scans were also obtained for orthotopic MDA-MB-435, c-neu oncomouse, and subcutaneous DU145 tumor models after tail-vein injected with 3.7 MBq of ^18F-FPRGD4.
For each microPET scan, regions of interest (ROIs) were drawn over the tumor, normal tissue, and major organs by using vendor software (ASI Pro 5.2.4.0) on decay-corrected whole-body coronal images. The maximum radioactivity concentration (accumulation) within a tumor or an organ was obtained from mean pixel values within the multiple ROI volume, which were converted to counts/mL/min by using a conversion factor. Assuming a tissue density of 1 g/mL, the ROIs were converted to counts/g/min and then divided by the administered activity to obtain an imaging ROI-derived % ID/g. […]
PET scans and image analysis were performed using a microPET R4 rodent model scanner (Siemens Medical Solutions) as previously reported (J Nucl Med. 2005;46:1707-1718 and J Nucl Med. 2006;47:113-121, each of which is incorporated herein by reference for the corresponding discussion). About 9.3 MBq of ^64Cu-DOTA-RGD multimer was intravenously injected into each mouse under isoflurane anesthesia. Five minute static scans were acquired at 30 min, 1 h, 2 h, 6 h, and 20 h p.i. The images were reconstructed by a 2-dimensional ordered-subsets expectation maximum (OSEM) algorithm and no correction was applied for attenuation and scatter. For each microPET scan, regions of interest (ROIs) were drawn over the tumor, normal tissue, and major organs on decay-corrected whole-body coronal images. The radioactivity concentration (accumulation) within a tumor was obtained from the maximum value within the multiple ROIs and then converted to % ID/g.
PET scans and image analysis were performed using a microPET R4 rodent model scanner (Siemens Medical Solutions) as previously reported (J Nucl Med. 2006;47:113-21 and J Nucl Med. 2005;46:1707-18, which is incorporated herein by reference for the corresponding discussion). […] The 60-min dynamic scan (5×1 min, 10×3 min, 5×5 min, total of 20 frames) was started 1 min after injection. A 2 h time point static scan was also acquired after the 60 min dynamic scan. Five min static PET images were also acquired separately at 30 min, 1 h and 2 h time points post-injection (p.i.) for another set of tumor-bearing mice (n=3/tracer). The images were reconstructed by a 2-dimensional ordered-subsets expectation maximum (OSEM) algorithm and no correction was necessary for attenuation or scatter correction. […]

Work on `N=C(N)NCCC[C@@H]1NC(=O)[C@H](CCCCNC(=O)CC[C@H](NC(=O)CC[C@H](NC(=O)CC[C@H](NC(=O)CN2CCN(CC(=O)O)CCN(CC(=O)O)CCN(CC(=O)O)CC2)C(=O)N[C@@H](CCC(=O)N[C@@H](CCC(=O)NCCCC[C@@H]2NC(=O)[C@@H](Cc3ccc(O)cc3)NC(=O)[C@H](CC(=O)O)NC(=O)CNC(=O)[C@H](CCCNC(=N)N)NC2=O)C(=O)NCCCC[C@@H]2NC(=O)[C@@H](Cc3ccc(O)cc3)NC(=O)[C@H](CC(=O)O)NC(=O)CNC(=O)[C@H](CCCNC(=N)N)NC2=O)C(=O)N[C@@H](CCC(=O)NCCCC[C@@H]2NC(=O)[C@@H](Cc3ccc(O)cc3)NC(=O)[C@H](CC(=O)O)NC(=O)CNC(=O)[C@H](CCCNC(=N)N)NC2=O)C(=O)NCCCC[C@@H]2NC(=O)[C@@H](Cc3ccc(O)cc3)NC(=O)[C@H](CC(=O)O)NC(=O)CNC(=O)[C@H](CCCNC(=N)N)NC2=O)C(=O)N[C@@H](CCC(=O)NCCCC[C@@H]2NC(=O)[C@@H](Cc3ccc(O)cc3)NC(=O)[C@H](CC(=O)O)NC(=O)CNC(=O)[C@H](CCCNC(=N)N)NC2=O)C(=O)NCCCC[C@@H]2NC(=O)[C@@H](Cc3ccc(O)cc3)NC(=O)[C@H](CC(=O)O)NC(=O)CNC(=O)[C@H](CCCNC(=N)N)NC2=O)C(=O)NCCCC[C@@H]2NC(=O)[C@@H](Cc3ccc(O)cc3)NC(=O)[C@H](CC(=O)O)NC(=O)CNC(=O)[C@H](CCCNC(=N)N)NC2=O)NC(=O)[C@@H](Cc2ccc(O)cc2)NC(=O)[C@H](CC(=O)O)NC(=O)CNC1=O` [DOTA-RGD octamer] yielded an IC50 (integrin αvβ3) of 11 nM.
`N=C(N)NCCC[C@@H]1NC(=O)[C@H](CCCCNC(=O)CC[C@H](NC(=O)CC[C@H](NC(=O)CN2CCN(CC(=O)O)CCN(CC(=O)O)CCN(CC(=O)O)CC2)C(=O)N[C@@H](CCC(=O)NCCCC[C@@H]2NC(=O)[C@@H](Cc3ccc(O)cc3)NC(=O)[C@H](CC(=O)O)NC(=O)CNC(=O)[C@H](CCCNC(=N)N)NC2=O)C(=O)NCCCC[C@@H]2NC(=O)[C@@H](Cc3ccc(O)cc3)NC(=O)[C@H](CC(=O)O)NC(=O)CNC(=O)[C@H](CCCNC(=N)N)NC2=O)C(=O)NCCCC[C@@H]2NC(=O)[C@@H](Cc3ccc(O)cc3)NC(=O)[C@H](CC(=O)O)NC(=O)CNC(=O)[C@H](CCCNC(=N)N)NC2=O)NC(=O)[C@@H](Cc2ccc(O)cc2)NC(=O)[C@H](CC(=O)O)NC(=O)CNC1=O` [DOTA-RGD tetramer] showed an IC50 (integrin αvβ3) of 28 nM.
With `CC(=O)O[C@H]1C(=O)[C@@]2(C)[C@H]([C@H](OC(=O)c3ccccc3)[C@]3(O)C[C@H](OC(=O)[C@H](O)[C@@H](NC(=O)c4ccccc4)c4ccccc4)C(C)=C1C3(C)C)[C@]1(OC(C)=O)CO[C@@H]1C[C@@H]2O` [^3H-PTX, reference compound] the “tissue concentration, Blood” value ([1]; 4 h) was 67.1 ± 9.8 ng/g, the “tissue concentration, Intestine” value ([1]; 4 h) was 274.1 ± 110.1 ng/g and the “tissue concentration, Kidney” value ([1]; 4 h) was 339.6 ± 67.6 ng/g. For the same compound, the “tissue concentration, Liver” value ([1]; 4 h) was 2389.3 ± 408.8 ng/g, the “tissue concentration, Lung” value ([1]; 4 h) was 329.2 ± 18.2 ng/g and the “tissue concentration, MDA-MB-435 tumor” value ([1]; 4 h) was 239.0 ± 56.2 ng/g. The “tissue concentration, Muscle” value ([1]; 4 h) was 257.3 ± 32.2 ng/g, the “tissue concentration, Skin” value ([1]; 4 h) was 135.1 ± 23.5 ng/g and the “tissue concentration, Spleen” value ([1]; 4 h) was 365.5 ± 118.5 ng/g. The “tissue concentration, Stomach” value ([1]; 4 h) was 180.7 ± 15.7 ng/g, the “tissue concentration, Blood” value ([1]; 24 h) was 42.7 ± 14.7 ng/g and the “tissue concentration, Intestine” value ([1]; 24 h) was 14.4 ± 2.5 ng/g. The “tissue concentration, Kidney” value ([1]; 24 h) was 38.0 ± 13.3 ng/g, the “tissue concentration, Liver” value ([1]; 24 h) was 123.4 ± 12.2 ng/g and the “tissue concentration, Lung” value ([1]; 24 h) was 35.2 ± 5.4 ng/g. The “tissue concentration, MDA-MB-435 tumor” value ([1]; 24 h) was 85.6 ± 15.2 ng/g, the “tissue concentration, Muscle” value ([1]; 24 h) was 41.1 ± 17.2 ng/g and the “tissue concentration, Skin” value ([1]; 24 h) was 24.6 ± 3.2 ng/g. For the same compound, the “tissue concentration, Spleen” value ([1]; 24 h) was 51.6 ± 7.6 ng/g, the “tissue concentration, Stomach” value ([1]; 24 h) was 24.4 ± 4.7 ng/g and the “decrease of concentration in the tumor” value ([1]; 24 h compared with 4 h) was “around 3 fold”. For the same compound, the “drop of concentration in kidneys” value ([1]; 24 h compared with 4 h) was 9 fold, the “drop of concentration in the liver” value ([1]; 24 h compared with 4 h) was 20 fold and the “tissue concentration, Blood” value ([1]; 48 h) was 35.0 ± 1.5 ng/g. For the same compound, the “tissue concentration, Intestine” value ([1]; 48 h) was 12.8 ± 7.0 ng/g, the “tissue concentration, Kidney” value ([1]; 48 h) was 35.7 ± 2.0 ng/g and the “tissue concentration, Liver” value ([1]; 48 h) was 132.6 ± 31.9 ng/g. The “tissue concentration, Lung” value ([1]; 48 h) was 47.9 ± 8.8 ng/g, the “tissue concentration, MDA-MB-435 tumor” value ([1]; 48 h) was 45.8 ± 1.69 ng/g and 45.8 ± 1.7 ng/g and the “tissue concentration, Muscle” value ([1]; 48 h) was 35.4 ± 10.7 ng/g. The “tissue concentration, Skin” value ([1]; 48 h) was 25.4 ± 9.3 ng/g, the “tissue concentration, Spleen” value ([1]; 48 h) was 36.4 ± 8.4 ng/g and the “tissue concentration, Stomach” value ([1]; 48 h) was 17.2 ± 4.0 ng/g. For the same compound, the “decrease of concentration in the tumor” value ([1]; 48 h compared with 4 h) was 5.2 fold.
With `N=C(N)NCCC[C@@H]1NC(=O)[C@H](CCCCNC(=O)CC[C@H](NC(=O)CC[C@H](NC(=S)Nc2ccc(C[C@H]3CN(CC(=O)O)CCN(CC(=O)O)CCN3CC(=O)O)cc2)C(=O)N[C@@H](CCC(=O)NCCCC[C@@H]2NC(=O)[C@@H](Cc3ccc(O)cc3)NC(=O)[C@H](CC(=O)O)NC(=O)CNC(=O)[C@H](CCCNC(=N)N)NC2=O)C(=O)NCCCC[C@@H]2NC(=O)[C@@H](Cc3ccc(O)cc3)NC(=O)[C@H](CC(=O)O)NC(=O)CNC(=O)[C@H](CCCNC(=N)N)NC2=O)C(=O)NCCCC[C@@H]2NC(=O)[C@@H](Cc3ccc(O)cc3)NC(=O)[C@H](CC(=O)O)NC(=O)CNC(=O)[C@H](CCCNC(=N)N)NC2=O)NC(=O)[C@@H](Cc2ccc(O)cc2)NC(=O)[C@H](CC(=O)O)NC(=O)CNC1=O` [^68Ga-NOTA-RGD4, metal not drawn] the tissue uptake at 0.5 h (in vivo; athymic nude) was 3.4 ± 0.1 %ID/g, the tissue uptake at 1 h (in vivo; athymic nude) was 2.8 ± 0.1 %ID/g and the tissue uptake at 2 h (in vivo; athymic nude) was 2 ± 0.2 %ID/g. It also gave a tissue uptake at 5 min (in vivo; nude) of 4.9 %ID/g, a tissue uptake at 0.25 h (in vivo; nude) of 4.08 %ID/g and a tissue uptake at 0.5 h (in vivo; nude) of 3.48 %ID/g. It also gave a tissue uptake at 1 h (in vivo; nude) of 2.86 %ID/g and a tissue uptake at 2 h (in vivo; nude) of 2.13 %ID/g.

— patent US20080267882A1, “Imaging compounds, methods of making imaging compounds, methods of imaging, therapeutic compounds, methods of making therapeutic compounds, and methods of therapy” (Stanford University, priority 2007, published 2008)
